Some results are limits rather than exact numbers.

The target in data set [1] is T1, recombinant human transglutaminase 2 (Homo sapiens, UniProt P21980).
T1 construct: purchased Zedira T022
T1 sequence (P21980 1-687): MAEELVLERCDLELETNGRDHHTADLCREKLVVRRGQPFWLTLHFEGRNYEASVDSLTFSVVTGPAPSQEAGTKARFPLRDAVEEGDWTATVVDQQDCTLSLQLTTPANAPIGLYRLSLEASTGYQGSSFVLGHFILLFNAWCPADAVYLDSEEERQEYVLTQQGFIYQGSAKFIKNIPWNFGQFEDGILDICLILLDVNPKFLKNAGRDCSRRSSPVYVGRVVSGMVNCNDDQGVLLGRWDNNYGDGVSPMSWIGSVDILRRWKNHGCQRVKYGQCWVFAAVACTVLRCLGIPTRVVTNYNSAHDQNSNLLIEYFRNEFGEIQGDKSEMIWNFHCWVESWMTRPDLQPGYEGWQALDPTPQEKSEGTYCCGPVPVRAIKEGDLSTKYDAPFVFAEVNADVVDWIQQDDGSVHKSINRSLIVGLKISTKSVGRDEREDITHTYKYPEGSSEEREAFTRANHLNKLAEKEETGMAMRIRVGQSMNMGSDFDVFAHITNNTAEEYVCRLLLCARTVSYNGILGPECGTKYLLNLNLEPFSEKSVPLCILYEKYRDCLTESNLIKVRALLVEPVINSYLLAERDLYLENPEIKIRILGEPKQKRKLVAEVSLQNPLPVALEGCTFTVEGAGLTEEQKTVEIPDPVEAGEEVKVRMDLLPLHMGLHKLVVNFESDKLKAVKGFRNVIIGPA
In words: Transglutaminase assay (dansylcadaverine incorporation into dimethylcasein, DCC-assay). In kind it is biochemical. As to conditions: recombinant human TG2 10 nM, dansylcadaverine/dimethylcasein, 37° C. On the procedure: For the determination of potency of inhibitors against tissue transglutaminase, the incorporation of dansylcadaverine into dimethylcasein (Zedira product T036, Lorand et al., Anal Biochem, 1971, 44:221-31) was measured using recombinant human transglutaminase 2 (Zedira Product T022).
The tissue transglutaminase is diluted in buffer (50 mM Tris-HCl, 7.5 mM CaCl2, 150 mM NaCl, pH=7.4). The final concentration of TG2 in the assay is 10 nM.
A 10 mM inhibitor stock solution is prepared in DMSO, and from this a serial 1:2-fold dilution series is prepared also in DMSO. Each of the initial dilutions is subsequently diluted 1:50-fold with buffer (50 mM Tris-HCl, 7.5 mM CaCl2, 150 mM NaCl, pH=7.4) to yield the final working dilutions containing 2% (v/v) DMSO.
15 μl of inhibitor working dilution are added per well of a 96 well microtiter plate. As control, 15 μl of a 2% (v/v) DMSO solution prepared using the buffer mentioned above are added per well.
Immediately before starting the assay, 600 μl transglutaminase working solution are added to 11.4 ml assay buffer (50 mM Tris-HCl, 10 mM CaCl2, 10 mM glutathione, 2.5% glycerol, 16.7 μM dansylcadaverine, 4 μM N,N-dimethylcasein, 200 mM NaCl, pH=8.0). 285 μl of this reaction mix are added per well containing the inhibitor.
Increase in fluorescence is measured using λex=330 nm and λem=500 nm at 37° C. for 30 min. A slope of the increase in fluorescence between 20 and 30 min is calculated for determination of the IC50 value (inhibitor concentration at which 50% of the initial activity is blocked).
Analysis of enzymatic activity is performed by calculation of the slope of an increase in fluorescence intensity. IC50 values are calculated by plotting the enzymatic activity (as percentage from control containing 2% DMSO instead of inhibitor) against the inhibitor concentration. IC50 is defined as the inhibitor concentration blocking 50% of initial enzyme activity.

A short description of data set [2]: Log D shake flask method (octanol / PBS pH 7.4, HPLC). It counts as physicochemical. The conditions noted are these: octanol/phosphate-buffered saline (PBS); octanol / PBS pH 7.4, shake flask. On the procedure:
In order to classify the inventive compounds according to their lipophilicity, Log D values (distribution coefficient) were determined by means of the well-established shake flask method, measuring the partition of a compound between an octanol and phosphate-buffered saline (PBS, pH 7.4) by HPLC.

A short description of data set [3]: Caco-2 permeability assay (CacoReady kit). In kind it is in vitro ADME. The conditions noted are these: human. On the procedure:
Permeability coefficients (Papp values) were obtained from Caco-2 barrier studies predicting oral/intestinal bioavailability of the tested compounds. The assays were performed by using CacoReady™ ready-to-use kits from ReadyCell according to the manufacturers protocol.

Regarding `COC(=O)/C=C/CC[C@H](NC(=O)c1cc(Cl)sc1Cl)C(=O)Nc1cccn(CC(=O)NC2C3CC4CC(C3)CC2C4)c1=O` (stereo partly drawn) [III-13, (S,E)-methyl 6-(2,5-dichlorothiophene-3-carboxamido)-7-(1-(2-(2-adamantylamino)-2-oxoethyl)-2-oxo-1,2-dihydropyridin-3-ylamino)-7-oxohept-2-enoate], in data set [1], the half-inhibitory concentration (IC50) is < 25 nM. The compound also returned a pH-dependent lipophilicity (logD) in data set [2] of 3 to 5. For the same compound, the Papp in data set [3] is 1 to 10 ×10⁻⁶ cm/s.
Regarding `COC(=O)/C=C/CC[C@H](NC(=O)c1sc(C(F)(F)F)nc1C)C(=O)Nc1cccn(CC(=O)NC2C3CC4CC(C3)CC2C4)c1=O` (stereo partly drawn) [III-14, (S,E)-methyl 7-(1-(2-(2-adamantylamino)-2-oxoethyl)-2-oxo-1,2-dihydropyridin-3-ylamino)-6-(4-methyl-2-(trifluoromethyl)thiazole-5-carboxamido)-7-oxohept-2-enoate], the IC50 in data set [1] is < 25 nM. In data set [2], this compound showed a logD of 3 to 5. Further, in data set [3], the apparent permeability coefficient (Papp) lay in the range of 1 to 10 ×10⁻⁶ cm/s.
`COC(=O)/C=C/CC[C@H](NC(=O)c1sc(Br)cc1Br)C(=O)Nc1cccn(CC(=O)NC2C3CC4CC(C3)CC2C4)c1=O` (stereo partly drawn) [III-15, (S,E)-methyl 6-(3,5-dibromothiophene-2-carboxamido)-7-(1-(2-(2-adamantylamino)-2-oxoethyl)-2-oxo-1,2-dihydropyridin-3-ylamino)-7-oxohept-2-enoate]: in data set [1], the IC50 was < 25 nM. Moreover, the log distribution coefficient (logD) in data set [2] fell in the range of 3 to 5. In addition, in data set [3], the apparent permeability (Papp) is 1 to 10 ×10⁻⁶ cm/s.
For `COC(=O)/C=C/CC[C@H](NC(=O)c1cc(Br)sc1Br)C(=O)Nc1cccn(CC(=O)NC2C3CC4CC(C3)CC2C4)c1=O` (stereo partly drawn) [III-16, (S,E)-methyl 6-(2,5-dibromothiophene-3-carboxamido)-7-(1-(2-(2-adamantylamino)-2-oxoethyl)-2-oxo-1,2-dihydropyridin-3-ylamino)-7-oxohept-2-enoate] the same measures were < 25 nM, 3 to 5 and 1 to 10 ×10⁻⁶ cm/s.
Take `COC(=O)/C=C/CC[C@H](NC(=O)c1csc(Br)c1)C(=O)Nc1cccn(CC(=O)NC2C3CC4CC(C3)CC2C4)c1=O` (stereo partly drawn) [III-17, (S,E)-methyl 6-(5-bromothiophene-3-carboxamido)-7-(1-(2-(2-adamantylamino)-2-oxoethyl)-2-oxo-1,2-dihydropyridin-3-ylamino)-7-oxohept-2-enoate]: the half-maximal inhibitory concentration (IC50) in data set [1] is < 25 nM. The log distribution coefficient (logD) in data set [2] is 3 to 5. Moreover, the Papp in data set [3] was < 1 ×10⁻⁶ cm/s.
For `COC(=O)/C=C/CC[C@H](NC(=O)c1cc(Br)cs1)C(=O)Nc1cccn(CC(=O)NC2C3CC4CC(C3)CC2C4)c1=O` (stereo partly drawn) [III-18, (S,E)-methyl 6-(4-bromothiophene-2-carboxamido)-7-(1-(2-(2-adamantylamino)-2-oxoethyl)-2-oxo-1,2-dihydropyridin-3-ylamino)-7-oxohept-2-enoate], in that order: < 25 nM, 3 to 5 and < 1 ×10⁻⁶ cm/s.
As for `COC(=O)/C=C/CC[C@H](NC(=O)c1cc(Br)c(Br)s1)C(=O)Nc1cccn(CC(=O)NC2C3CC4CC(C3)CC2C4)c1=O` (stereo partly drawn) [III-19, (S,E)-methyl 6-(4,5-dibromothiophene-2-carboxamido)-7-(1-(2-(2-adamantylamino)-2-oxoethyl)-2-oxo-1,2-dihydropyridin-3-ylamino)-7-oxohept-2-enoate], the IC50 in data set [1] is < 25 nM. Further, in data set [2], the logD lay in the range of 3 to 5. Further, the Papp in data set [3] lay in the range of 1 to 10 ×10⁻⁶ cm/s.
As to `COC(=O)/C=C/CC[C@H](NC(=O)c1cc(Cl)c(Cl)s1)C(=O)Nc1cccn(CC(=O)NC2C3CC4CC(C3)CC2C4)c1=O` (stereo partly drawn) [III-20, (S,E)-methyl 6-(4,5-dichlorothiophene-2-carboxamido)-7-(1-(2-(2-adamantylamino)-2-oxoethyl)-2-oxo-1,2-dihydropyridin-3-ylamino)-7-oxohept-2-enoate], the half-inhibitory concentration (IC50) in data set [1] was < 25 nM. In addition, the logD in data set [2] is 3 to 5. For the same compound, the apparent permeability (Papp) in data set [3] fell in the range of 1 to 10 ×10⁻⁶ cm/s.
For `COC(=O)/C=C/CC[C@H](NC(=O)[C@@H]1CCCN1C(C)=O)C(=O)Nc1cccn(CC(=O)NC2C3CC4CC(C3)CC2C4)c1=O` (stereo partly drawn) [III-21, (S,E)-methyl 6-((S)-1-acetylpyrrolidine-2-carboxamido)-7-(1-(2-(2-adamantylamino)-2-oxoethyl)-2-oxo-1,2-dihydropyridin-3-ylamino)-7-oxohept-2-enoate] the same measures were < 25 nM, 1 to 3 and < 1 ×10⁻⁶ cm/s.
For `COC(=O)/C=C/CC[C@H](NC(=O)c1cnnn1C)C(=O)Nc1cccn(CC(=O)NC2C3CC4CC(C3)CC2C4)c1=O` (stereo partly drawn) [III-22, (S,E)-methyl 7-(1-(2-(2-adamantylamino)-2-oxoethyl)-2-oxo-1,2-dihydropyridin-3-ylamino)-6-(1-methyl-1H-1,2,3-triazole-5-carboxamido)-7-oxohept-2-enoate], the concentration for half-maximal inhibition (IC50) in data set [1] is < 25 nM. The compound also had a logD in data set [2] of 1 to 3. Further, in data set [3], the apparent permeability (Papp) was in the range of 1 to 10 ×10⁻⁶ cm/s.
For `COC(=O)/C=C/CC[C@H](NC(=O)c1nn[nH]n1)C(=O)Nc1cccn(CC(=O)NC2C3CC4CC(C3)CC2C4)c1=O` (stereo partly drawn) [III-23, (S,E)-methyl 7-(1-(2-(2-adamantylamino)-2-oxoethyl)-2-oxo-1,2-dihydropyridin-3-ylamino)-7-oxo-6-(2H-tetrazole-5-carboxamido)hept-2-enoate], in data set [1], the IC50 fell in the range of 25 to 250 nM. In data set [2], this compound registered a logD of 1 to 3. The compound further yielded a Papp in data set [3] of 1 to 10 ×10⁻⁶ cm/s.
Regarding `COC(=O)/C=C/CC[C@H](NC(=O)c1cnccn1)C(=O)Nc1cccn(CC(=O)NC2C3CC4CC(C3)CC2C4)c1=O` (stereo partly drawn) [III-24, (S,E)-methyl 7-(1-(2-(2-adamantylamino)-2-oxoethyl)-2-oxo-1,2-dihydropyridin-3-ylamino)-7-oxo-6-(pyrazine-2-carboxamido)hept-2-enoate], the IC50 in data set [1] was in the range of 25 to 250 nM. For the same compound, in data set [2], the logD was in the range of 1 to 3. In addition, the Papp in data set [3] is < 1 ×10⁻⁶ cm/s.
For `COC(=O)/C=C/CC[C@H](NC(=O)[C@@H]1CCCN1C)C(=O)Nc1cccn(CC(=O)NC2C3CC4CC(C3)CC2C4)c1=O` (stereo partly drawn) [III-25, (S,E)-methyl 7-(1-(2-(2-adamantylamino)-2-oxoethyl)-2-oxo-1,2-dihydropyridin-3-ylamino)-6-((S)-1-methylpyrrolidine-2-carboxamido)-7-oxohept-2-enoate] the same measures were 25 to 250 nM, 3 to 5 and < 1 ×10⁻⁶ cm/s.
For `COC(=O)/C=C/CC[C@H](NC(=O)[C@H]1CCNC1)C(=O)Nc1cccn(CC(=O)NC2C3CC4CC(C3)CC2C4)c1=O` (stereo partly drawn) [III-26, (S,E)-methyl 7-(1-(2-(2-adamantylamino)-2-oxoethyl)-2-oxo-1,2-dihydropyridin-3-ylamino)-7-oxo-6-((S)-pyrrolidine-3-carboxamido)hept-2-enoate], in that order: 25 to 250 nM, 1 to 3 and 1 to 10 ×10⁻⁶ cm/s.
In the case of `COC(=O)/C=C/CC[C@H](NC(=O)[C@@H]1C[C@H](Br)CN1)C(=O)Nc1cccn(CC(=O)NC2C3CC4CC(C3)CC2C4)c1=O` (stereo partly drawn) [III-27, (S,E)-methyl 6-((2S,4S)-4-bromopyrrolidine-2-carboxamido)-7-(1-(2-(2-adamantylamino)-2-oxoethyl)-2-oxo-1,2-dihydropyridin-3-ylamino)-7-oxohept-2-enoate], the concentration for half-maximal inhibition (IC50) in data set [1] was 25 to 250 nM. Further, the log distribution coefficient (logD) in data set [2] was 3 to 5. Moreover, the Papp in data set [3] was < 1 ×10⁻⁶ cm/s.

The record behind these values is patent US20240317708A1, “INHIBITORS OF TRANSGLUTAMINASES” (ZEDIRA GMBH, priority 2021, published 2024).
